Measured values from US9273338B2, “Chimeric avian-based screening system containing mammalian grafts” (priority 2004, dated 2016).

Key:
[1] = tested on: human skin grafted onto the CAM of a fertilized egg; assay: Human skin irritation quantified with the skin-CAM system; assay type: in vivo
Method: FIGS. 2B and 2C quantitate the change in epidermal thickness of CAM-grafted and organ culture-maintained human skin. Epidermal thickness was measured using digital photos, by tracing the epidermis with a digitizing pad and determining area using the public domain scientific imaging software ImageJ (http://rsb.info.nih.gov/ij/). Size bars represent 0.05 mm
Punch biopsies of human skin were grafted onto the CAM of a fertilized egg as described in Example 1. The human skin samples were allowed to incubate for 2 days after grafting in order to allow for the skin to incorporate, and then the adhesive tape sealing of the samples was reopened. The detergent sodium dodecylsulfate (SDS) was applied to different skin samples at different concentrations topically using a small plastic ring cut from a pipette tip keep the irritant in place. The skin samples were then resealed and returned to the incubator for an addition three days, whereupon they underwent routine histological and immunochemical analysis using Abs for the proliferation marker PCNA. PCNA^+ cells were counted in several sections, and the length of the epidermis in the section measured. Results are expressed as PCNA^+ cells/mm.

[2] = tested on: Langerhans cells (LC) in human skin explants cultivated on the CAM; assay: Activation and mobilization of Langerhans cells in human skin grafts on the CAM (CD1a staining); assay type: in vivo
Method: Excess fat was manually removed from human skin obtained within 2 hours of surgery. The skin was cut into rectangular/square pieces approximately 7-10 mm on each side and stored on a cold plate at 15° C. in saline. Eggs with an artificial air sac were opened with iris scissors in a sterile hood. The ectodermal surface of the CAM was abraded by touching it briefly with a sterile piece of lens tissue to improve the adherence of the graft. The skin was then gently place on the CAM and stretched out. The eggs were then sealed with scotch tape, and returned to the incubator.
Two-three days after grafting the skin, the eggs were re-opened, and the grafts are evaluated visually for viability. Eggs containing skin that has yellowed or that looks obviously infected were discarded. A plastic ring just smaller than the skin was placed on the graft in order to prevent leakage of the test substance away from the skin, using Vaseline to seal it down. Then, a 50 μl drop of the tested substance was placed on the skin, and the egg was re-sealed and incubated for another 6 hours-5 days. At the end of the re-incubation, the skin was removed from the CAM and prepared for paraffin histology. […]
All the microscopic 400 μm-fields in triplicate sections from each skin sample were counted with a 40× objective. The average number of cells per field was then determined and averaged for that skin sample. […]

CCCCCCCCCCCCOS(=O)(=O)[O-].[Na+] [SDS, sodium dodecylsulfate]
epidermal thickness ([1]; topical SDS treatment, FIG. 3B): no significant differences in epidermal thickness | epidermal proliferation (PCNA+ cells/mm) ([1]; topical SDS, 1% and 2.5% produce similar results, 3 days after treatment, p<0.05, FIG. 3A): significantly increases epidermal proliferation

O=[N+]([O-])c1ccc(F)c([N+](=O)[O-])c1 [DNFB, dinitrofluorobenzene]
CD1a+ LC in the epidermis ([2]; overnight (O/N) incubation, compared to untreated skin fixed immediately or O/N acetone/olive oil (solvent) treated skin, FIG. 9): significant decrease

B1: LT: lymphotoxin (LT) (protein, UniProt P01374 35-205, looked up)
Lymphotoxin-alpha: LPGVGLTPSAAQTARQHPKMHLAHSTLKPAAHLIGDPSKQNSLLWRANTDRAFLQDGFSLSNNSLLVPTSGIYFVYSQVVFSGKAYSPKATSSPLYLAHEVQLFSSQYPFHVPLLSSQKMVYPGLQEPWLHSMYHGAAFQLTQGDQLSTHTDGIPHLVLSPSTVFFGAFAL
number of CD1a+ LC in epidermis ([2]; LT-treated skin grafts, FIG. 10): clear decrease
